Data from US20240425478A1, “CYCLOPENTYLPYRAZOLE CDK2 INHIBITORS” (Genentech, Inc., priority 2021, published 2024).
Like-named read-outs stand apart in the source and are kept apart here.

Columns and labels:
[1] = target: T1, Cyclin Dependent Kinase 1/Cyclin A2 (CDK1-cycA2) (Homo sapiens, UniProt P06493); assay: CDK1-cycA2 TR-FRET (Lance) enzyme assay; format: biochemical; conditions: Table O, enzymatic assay
T1 construct: purchased ProQinase 0134-0054-1
In short: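 TR-FRET (Lance) detection of phospho-4E-BP1 with a europium-labelled antibody after EDTA quench (15 mM final); signal taken as acceptor/donor ratio. Enzyme and compound were pre-incubated 30 min in HEPES pH 7.5 buffer with MgCl2, TCEP, BGG and Brij 35. Ki derived by Morrison fit.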

[2] = target: T2, Cyclin Dependent Kinase 2/Cyclin E1 (CDK2-cycE1) (Homo sapiens, UniProt P24941); assay: CDK2-cycE1 TR-FRET (LANCE) enzyme assay; format: biochemical; conditions: for FS CDK1/CDK2 / FS CDK4/CDK2: fold selectivity; for increased fold-selectivity CDK4/CDK2 over Comparator C: (+) sign after FS CDK4/CDK2;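 as to improvement in potency against CDK2 (Ki) over Comparator C: fold lower CDK2 Ki than comparator c (Ki 0.032 µM)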
T2 construct: purchased ProQinase 0050-0055-1
In short: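 Kinase reaction buffer: 50 mM HEPES pH 7.5, 10 mM MgCl2, 2 mM TCEP, 0.05% BGG, 0.01% Brij 35, with 30 min compound–enzyme pre-incubation.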

[3] = target: T3, Cyclin Dependent Kinase 4/Cyclin D3 (CDK4-cycD3) (Homo sapiens, UniProt P11802); assay: CDK4-cycD3 TR-FRET (LANCE) enzyme assay; format: biochemical; conditions: Table O, enzymatic assay
T3 construct: purchased Carna Biosciences 04-105
In short: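 Compound dose responses pre-incubated 30 min with enzyme mix in 50 mM HEPES pH 7.5, 10 mM MgCl2, 2 mM TCEP, 0.05% BGG, 0.01% Brij 35. Reaction quenched with EDTA (15 mM final); Eu-anti-phospho-4E-BP1 TR-FRET detection, acceptor/donor ratio. Ki derived by Morrison equation.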

[4] = tested on: OVISE (JCRB1043, CCNE1-amplified); assay: OVISE EdU incorporation cell proliferation assay (CDK2-dependent); format: cell-based; conditions: for IC50: cellular assay, read-out: CDK2 OVISE IC50; for FS SKOV-3/OVISE / FS p-H3/OVISE: fold selectivity; for FS p-H3/OVISE: cellular p-H3 IC50 over OVISE IC50; for increased fold-selectivity SKOV-3/OVISE over Comparator C: (+) sign after FS SKOV-3/OVISE; for improvement in CDK2 OVISE cell potency over Comparator C: in brackets after OVISE IC50, Comparator C 5.5 μM
In short: (§1)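 EdU incorporation (0.5 μM final, last 8 h) follows a 16 h compound exposure at 37 °C, 5% CO2 in RPMI plus 10% FBS, 0.5% DMSO. After fixation, imaging scores EdU-positive cells; a 4-parameter logistic fit of that fraction gives IC50.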

[5] = tested on: SKOV-3 (ATCC HTB-77); assay: SKOV-3 EdU incorporation cell proliferation assay (CDK4/6-dependent); format: cell-based; conditions: Homo sapiens, cellular assay, read-out: CDK4/6 SKOV-3 IC50
In short: as §1

[6] = tested on: HCT116 cells; assay: p-H3 HCT-116 mitotic release cell proliferation assay (cellular CDK1); format: cell-based; conditions: Homo sapiens, HCT-116; Table O, cellular assay; read-out: CDK1 p-H3 IC50
In short: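 Phospho-Histone H3 (Ser10) in lysates was quantified by a two-antibody HTRF FRET read (≥2 h, room temperature). Before this, HCT116 cells held in mitosis by 16 h of 500 nM nocodazole were treated with compound for 4 h at 37 °C, 0.1% DMSO.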

[7] = Table O, enzymatic assay, read-out: CDK2 Ki
[8] = Table O, enzymatic CDK1 Ki over CDK2 Ki
[9] = Table O, enzymatic CDK4 Ki over CDK2 Ki
[10] = Table Q, enzymatic assay, read-out: CDK2 Ki
[11] = Table O, cellular SKOV-3 IC50 over OVISE IC50

T1 sequence (P06493 whole entry): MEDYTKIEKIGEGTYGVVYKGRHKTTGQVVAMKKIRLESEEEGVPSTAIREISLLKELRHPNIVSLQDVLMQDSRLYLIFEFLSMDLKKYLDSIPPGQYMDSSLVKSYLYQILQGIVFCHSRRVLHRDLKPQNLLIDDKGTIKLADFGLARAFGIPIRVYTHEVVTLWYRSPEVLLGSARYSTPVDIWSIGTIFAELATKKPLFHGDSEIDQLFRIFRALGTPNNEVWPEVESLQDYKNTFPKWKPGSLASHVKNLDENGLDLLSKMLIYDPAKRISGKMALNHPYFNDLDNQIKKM
T1 sequence (P20248 whole entry partner): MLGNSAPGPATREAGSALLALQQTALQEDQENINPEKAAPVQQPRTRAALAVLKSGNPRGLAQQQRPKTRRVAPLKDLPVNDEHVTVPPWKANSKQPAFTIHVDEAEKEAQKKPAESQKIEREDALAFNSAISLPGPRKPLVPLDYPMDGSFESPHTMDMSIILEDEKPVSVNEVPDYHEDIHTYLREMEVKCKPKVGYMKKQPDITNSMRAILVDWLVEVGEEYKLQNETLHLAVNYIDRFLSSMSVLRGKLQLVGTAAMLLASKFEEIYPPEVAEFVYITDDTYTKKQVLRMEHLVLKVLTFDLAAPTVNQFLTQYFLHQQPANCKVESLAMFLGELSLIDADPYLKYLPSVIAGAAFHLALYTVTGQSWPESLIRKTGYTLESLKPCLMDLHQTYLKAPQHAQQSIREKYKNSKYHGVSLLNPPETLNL
T3 sequence (P11802 whole entry): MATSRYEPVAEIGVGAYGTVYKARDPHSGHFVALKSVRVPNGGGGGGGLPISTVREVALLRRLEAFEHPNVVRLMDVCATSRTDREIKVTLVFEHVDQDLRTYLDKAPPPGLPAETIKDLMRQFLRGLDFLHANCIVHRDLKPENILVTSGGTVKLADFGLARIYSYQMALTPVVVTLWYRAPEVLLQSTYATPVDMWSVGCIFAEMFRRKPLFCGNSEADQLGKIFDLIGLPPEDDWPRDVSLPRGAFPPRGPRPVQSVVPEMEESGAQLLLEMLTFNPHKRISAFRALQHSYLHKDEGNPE
T3 sequence (P30281 whole entry partner): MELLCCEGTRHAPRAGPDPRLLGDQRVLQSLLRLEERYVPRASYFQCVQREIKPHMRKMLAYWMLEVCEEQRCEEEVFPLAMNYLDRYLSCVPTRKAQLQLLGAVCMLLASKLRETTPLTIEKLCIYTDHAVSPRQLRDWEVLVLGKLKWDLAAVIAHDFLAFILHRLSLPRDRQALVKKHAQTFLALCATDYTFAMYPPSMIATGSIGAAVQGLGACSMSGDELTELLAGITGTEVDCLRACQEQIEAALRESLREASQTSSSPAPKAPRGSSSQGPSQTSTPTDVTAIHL

| Structure (SMILES) | Ki [1] [nM] | Ki [2, 7] [nM] | FS CDK1/CDK2 [2, 8] | FS CDK4/CDK2 [2, 9] | increased fold-selectivity CDK4/CDK2 over Comparator C ([2]; Table Q) | Ki [2, 10] [nM] | FS CDK1/CDK2 ([2]; Table Q, enzymatic) | FS CDK4/CDK2 ([2]; Table Q, enzymatic) | Ki [3] [nM] | IC50 ([4]; Table O) [nM] | FS SKOV-3/OVISE [4, 11] | FS p-H3/OVISE ([4]; Table O) | increased fold-selectivity SKOV-3/OVISE over Comparator C ([4]; Table Q) | FS SKOV-3/OVISE ([4]; Table Q, cellular) | improvement in CDK2 OVISE cell potency over Comparator C ([4]; Table Q) [fold] | IC50 ([5]; SK-OV-3, Table O) [nM] | IC50 ([5]; SK-OV-3, Table Q) [nM] | IC50 [6] [nM] | further results |
| --- | --- | --- | --- | --- | --- | --- | --- | --- | --- | --- | --- | --- | --- | --- | --- | --- | --- | --- | --- |
| CC(C)NC(=O)O[C@@H]1CC[C@H](c2cc(Nc3ccc(=O)n(C)n3)n[nH]2)C1 [Example 2, (1R,3S)-3-(3-((1-methyl-6-oxo-1,6-dihydropyridazin-3-yl)amino)-1H-pyrazol-5-yl)cyclopentyl isopropylcarbamate] | 16 | 0.44 | 36 | 550 | (+) (The (+) sign in Table Q signifies desirable increased fold-selectivity of the exemplary compounds over Comparator C) | 0.44 | 36 | 550 | 240 | 93 | 120 | 1.9 | (+) (The (+) sign in Table Q signifies desirable increased fold-selectivity of the exemplary compounds over Comparator C) | 120 | 59 | 11000 | 11000 | 190 | improvement in potency against CDK2 (Ki) over Comparator C ([2]; Table Q, in brackets after CDK2 Ki, Comparator C 0.032 μM): 73 fold; Ki ([2]; read-out: CDK2 activity / potency (enzymatic assay)): ≤ 1 nM |
| Cc1nccnc1Nc1cc([C@H]2CC[C@@H](OC(=O)NC3(C)COC3)C2)[nH]n1 [Example 8B, (1R,3S)-3-(3-((3-methylpyrazin-2-yl)amino)-1H-pyrazol-5-yl)cyclopentyl (3-methyloxetan-3-yl)carbamate] | 52 | 0.66 | 79 | 212 | – | – | – | – | 140 | 87 | 34 | 1.6 | – | – | – | 3000 | – | 140 | – |
| CC(C)NC(=O)O[C@@H]1CC[C@H](c2cc(Nc3ccncn3)n[nH]2)C1 [Example 2C, (1R,3S)-3-(3-(pyrimidin-4-ylamino)-1H-pyrazol-5-yl)cyclopentyl isopropylcarbamate] | 43 | 1.1 | 39 | 86 | (+) (The (+) sign in Table Q signifies desirable increased fold-selectivity of the exemplary compounds over Comparator C) | 1.1 | 39 | 86 | 95 | 110 | 37 | 0.47 | (+) (The (+) sign in Table Q signifies desirable increased fold-selectivity of the exemplary compounds over Comparator C) | 37 | 50 | 4100 | 4100 | 52 | improvement in potency against CDK2 (Ki) over Comparator C [2]: 32 fold; increased fold-selectivity CDK1/CDK2 over Comparator C ([2]; Table Q, (+) sign after FS CDK1/CDK2): (+) (The (+) sign in Table Q signifies desirable increased fold-selectivity of the exemplary compounds over Comparator C) |
| Cn1nc(Nc2cc([C@H]3CC[C@@H](OC(=O)NC(C)(C)C(F)F)C3)[nH]n2)ccc1=O [Example 5C, (1R,3S)-3-(3-((1-methyl-6-oxo-1,6-dihydropyridazin-3-yl)amino)-1H-pyrazol-5-yl)cyclopentyl (1,1-difluoro-2-methylpropan-2-yl)carbamate] | 9.4 | 0.3 | 31 | 433 | – | – | – | – | 130 | 63 | 84 | 2.4 | – | – | – | 5300 | – | 150 | – |
